Consider 4 molecules from ChEMBL document CHEMBL1201862, “PubChem BioAssay data set” (2004).

Calls of active or inactive are those of the source. Where only a bound is given, the exact number is not on record here.

The target in assay [1] is ALK tyrosine kinase receptor (Homo sapiens, UniProt Q9UM73). It is filed as functional.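 Further: ALK tested as one member of a kinase panel screen.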
For assay [2], the target named is Cyclin-dependent kinase 19 (Homo sapiens, UniProt Q9BWU1). Kind of assay: Navigating the Kinome. Panel member name: CDC2L6. It counts as functional.
Assay [3] deals with Glycogen synthase kinase-3 beta (Homo sapiens, UniProt P49841). It is filed as functional.
The target of assay [4] is Cell division cycle 7-related protein kinase (Homo sapiens, UniProt O00311). It is filed as functional.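 Further: value obtained from a kinome-wide kinase panel.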
Cell division cycle 7-related protein kinase, sequence (O00311 whole entry): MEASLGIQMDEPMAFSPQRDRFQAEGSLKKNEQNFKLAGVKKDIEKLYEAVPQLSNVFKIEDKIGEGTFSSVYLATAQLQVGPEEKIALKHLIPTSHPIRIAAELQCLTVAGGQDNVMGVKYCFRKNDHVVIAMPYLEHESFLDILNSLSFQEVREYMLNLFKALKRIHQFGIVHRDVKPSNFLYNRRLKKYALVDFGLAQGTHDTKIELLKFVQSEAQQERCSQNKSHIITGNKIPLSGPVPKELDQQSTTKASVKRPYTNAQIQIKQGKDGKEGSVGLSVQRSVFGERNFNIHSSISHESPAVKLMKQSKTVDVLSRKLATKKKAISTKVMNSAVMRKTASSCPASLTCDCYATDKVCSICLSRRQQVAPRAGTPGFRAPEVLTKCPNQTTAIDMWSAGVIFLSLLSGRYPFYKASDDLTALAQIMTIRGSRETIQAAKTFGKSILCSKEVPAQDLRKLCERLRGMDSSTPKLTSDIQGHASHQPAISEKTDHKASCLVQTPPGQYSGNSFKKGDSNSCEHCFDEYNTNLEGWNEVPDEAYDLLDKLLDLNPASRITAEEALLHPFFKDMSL
Assay [5] concerns the target Dual specificity protein kinase CLK4 (Homo sapiens, UniProt Q9HAZ1). It counts as functional.
For assay [6], the target named is Homeodomain-interacting protein kinase 2 (Homo sapiens, UniProt Q9H2X6). It counts as functional.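 Further: measured within a kinome-wide kinase profiling panel, HIPK2 being one panel member.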
Homeodomain-interacting protein kinase 2, sequence (Q9H2X6 whole entry): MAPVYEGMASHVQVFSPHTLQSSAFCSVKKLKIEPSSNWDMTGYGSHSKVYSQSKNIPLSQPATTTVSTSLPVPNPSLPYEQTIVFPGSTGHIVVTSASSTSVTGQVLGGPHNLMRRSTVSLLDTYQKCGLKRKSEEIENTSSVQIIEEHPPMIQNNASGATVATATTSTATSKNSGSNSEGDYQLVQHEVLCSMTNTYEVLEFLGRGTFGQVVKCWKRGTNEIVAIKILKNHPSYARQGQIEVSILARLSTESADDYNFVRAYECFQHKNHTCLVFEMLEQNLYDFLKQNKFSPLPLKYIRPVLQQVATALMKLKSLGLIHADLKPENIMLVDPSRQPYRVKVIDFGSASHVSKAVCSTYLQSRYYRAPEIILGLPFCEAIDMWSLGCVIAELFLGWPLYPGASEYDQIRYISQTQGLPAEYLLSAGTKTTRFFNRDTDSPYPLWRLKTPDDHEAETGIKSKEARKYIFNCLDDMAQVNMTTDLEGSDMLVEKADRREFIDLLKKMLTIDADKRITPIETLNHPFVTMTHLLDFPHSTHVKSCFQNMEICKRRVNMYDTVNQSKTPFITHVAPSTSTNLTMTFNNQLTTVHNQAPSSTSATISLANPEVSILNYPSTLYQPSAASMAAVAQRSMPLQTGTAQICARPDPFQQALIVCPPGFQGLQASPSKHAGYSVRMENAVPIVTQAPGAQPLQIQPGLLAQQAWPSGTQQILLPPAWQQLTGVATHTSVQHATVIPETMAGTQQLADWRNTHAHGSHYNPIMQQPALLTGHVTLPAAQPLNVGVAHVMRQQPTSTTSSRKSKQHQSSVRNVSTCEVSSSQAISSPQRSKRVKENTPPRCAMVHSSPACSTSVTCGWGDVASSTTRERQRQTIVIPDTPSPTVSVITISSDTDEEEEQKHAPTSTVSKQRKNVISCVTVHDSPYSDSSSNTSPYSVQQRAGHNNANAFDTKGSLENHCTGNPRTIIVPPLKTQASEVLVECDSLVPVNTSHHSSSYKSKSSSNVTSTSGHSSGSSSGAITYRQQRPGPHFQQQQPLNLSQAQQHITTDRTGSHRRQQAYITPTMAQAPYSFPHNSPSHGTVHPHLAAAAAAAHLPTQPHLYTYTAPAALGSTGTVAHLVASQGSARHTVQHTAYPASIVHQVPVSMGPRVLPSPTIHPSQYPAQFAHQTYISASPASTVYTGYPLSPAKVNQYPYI
Assay [7] deals with Serine/threonine-protein kinase pim-1 (Homo sapiens, UniProt P11309). It counts as functional.
Serine/threonine-protein kinase pim-1, sequence (P11309 whole entry): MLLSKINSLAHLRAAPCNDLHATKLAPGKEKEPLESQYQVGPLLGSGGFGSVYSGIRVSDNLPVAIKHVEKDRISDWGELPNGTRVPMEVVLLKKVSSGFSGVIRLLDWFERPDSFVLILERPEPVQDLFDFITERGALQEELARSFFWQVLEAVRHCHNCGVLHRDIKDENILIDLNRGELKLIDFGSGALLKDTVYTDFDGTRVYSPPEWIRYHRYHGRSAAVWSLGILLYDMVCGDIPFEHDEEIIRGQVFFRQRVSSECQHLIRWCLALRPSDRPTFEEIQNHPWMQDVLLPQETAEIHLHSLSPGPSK
In assay [8] the target is Mitogen-activated protein kinase kinase kinase kinase 4 (Homo sapiens, UniProt O95819). It counts as functional.
Mitogen-activated protein kinase kinase kinase kinase 4, sequence (O95819 whole entry): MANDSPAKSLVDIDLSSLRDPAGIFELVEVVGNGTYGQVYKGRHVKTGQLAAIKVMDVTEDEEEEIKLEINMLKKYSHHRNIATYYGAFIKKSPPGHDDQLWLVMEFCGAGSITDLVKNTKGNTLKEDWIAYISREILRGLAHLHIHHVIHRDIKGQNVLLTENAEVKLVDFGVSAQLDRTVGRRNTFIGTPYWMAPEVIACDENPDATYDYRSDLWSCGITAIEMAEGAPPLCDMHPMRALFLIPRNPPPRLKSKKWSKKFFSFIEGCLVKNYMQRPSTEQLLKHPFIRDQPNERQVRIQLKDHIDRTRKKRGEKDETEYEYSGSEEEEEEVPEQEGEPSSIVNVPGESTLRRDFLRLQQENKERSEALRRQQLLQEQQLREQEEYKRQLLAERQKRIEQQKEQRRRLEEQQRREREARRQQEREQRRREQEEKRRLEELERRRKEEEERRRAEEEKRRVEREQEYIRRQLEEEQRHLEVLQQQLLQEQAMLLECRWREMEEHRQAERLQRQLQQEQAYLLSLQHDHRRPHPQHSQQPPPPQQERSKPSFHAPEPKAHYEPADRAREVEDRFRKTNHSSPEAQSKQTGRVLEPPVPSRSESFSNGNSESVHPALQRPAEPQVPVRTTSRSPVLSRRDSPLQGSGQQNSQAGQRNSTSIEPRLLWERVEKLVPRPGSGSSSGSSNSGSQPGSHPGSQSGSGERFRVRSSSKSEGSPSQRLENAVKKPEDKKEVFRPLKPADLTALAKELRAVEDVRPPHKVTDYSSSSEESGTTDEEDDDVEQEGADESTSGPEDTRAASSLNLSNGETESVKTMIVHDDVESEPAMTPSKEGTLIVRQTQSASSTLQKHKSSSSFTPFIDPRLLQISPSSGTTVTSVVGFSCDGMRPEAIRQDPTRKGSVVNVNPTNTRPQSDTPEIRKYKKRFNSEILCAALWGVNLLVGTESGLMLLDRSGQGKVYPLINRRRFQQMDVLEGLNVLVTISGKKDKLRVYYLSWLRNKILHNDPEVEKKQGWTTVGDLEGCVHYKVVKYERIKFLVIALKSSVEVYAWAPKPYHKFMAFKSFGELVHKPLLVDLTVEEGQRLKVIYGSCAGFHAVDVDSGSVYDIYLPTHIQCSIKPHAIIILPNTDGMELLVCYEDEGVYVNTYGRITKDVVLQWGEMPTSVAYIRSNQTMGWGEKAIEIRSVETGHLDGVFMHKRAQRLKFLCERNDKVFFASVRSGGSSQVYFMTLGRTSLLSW
For assay [9], the target named is Interleukin-1 receptor-associated kinase 4 (Homo sapiens, UniProt Q9NWZ3). It counts as functional.
Assay [10] addresses cAMP-dependent protein kinase catalytic subunit alpha (Homo sapiens, UniProt P17612). It is filed as functional.
Assay [11] deals with HEK293. Nature of the assay: cells. The following applies: Homo sapiens.
Assay [12] in a line: reduction of Shn3 3'UTR-driven luciferase in osteoblasts – cell-based, Clone20 osteoblasts, firefly luciferase, cherry-picked, dose response (AID 624132).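 Further: firefly luciferase luminescence from reporter carrying the Shn3 3'UTR in osteoblasts.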 It counts as functional.
Assay [13] can be described thus: viability of PTEN-deleted HCT116 cells – cell-based, HCT116 PTEN knockout, dose response (AID 1047).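 Further: HCT116 colon tumor cells with PTEN knocked out; cells exposed to compound for 60 hours before readout; potency for loss of cell viability measured by luminescence.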 It counts as functional.
Assay [14] has as its target T1, Replicative DNA helicase DnaB (Mycobacterium tuberculosis, UniProt P9WMR3).
T1 sequence (P9WMR3 whole entry): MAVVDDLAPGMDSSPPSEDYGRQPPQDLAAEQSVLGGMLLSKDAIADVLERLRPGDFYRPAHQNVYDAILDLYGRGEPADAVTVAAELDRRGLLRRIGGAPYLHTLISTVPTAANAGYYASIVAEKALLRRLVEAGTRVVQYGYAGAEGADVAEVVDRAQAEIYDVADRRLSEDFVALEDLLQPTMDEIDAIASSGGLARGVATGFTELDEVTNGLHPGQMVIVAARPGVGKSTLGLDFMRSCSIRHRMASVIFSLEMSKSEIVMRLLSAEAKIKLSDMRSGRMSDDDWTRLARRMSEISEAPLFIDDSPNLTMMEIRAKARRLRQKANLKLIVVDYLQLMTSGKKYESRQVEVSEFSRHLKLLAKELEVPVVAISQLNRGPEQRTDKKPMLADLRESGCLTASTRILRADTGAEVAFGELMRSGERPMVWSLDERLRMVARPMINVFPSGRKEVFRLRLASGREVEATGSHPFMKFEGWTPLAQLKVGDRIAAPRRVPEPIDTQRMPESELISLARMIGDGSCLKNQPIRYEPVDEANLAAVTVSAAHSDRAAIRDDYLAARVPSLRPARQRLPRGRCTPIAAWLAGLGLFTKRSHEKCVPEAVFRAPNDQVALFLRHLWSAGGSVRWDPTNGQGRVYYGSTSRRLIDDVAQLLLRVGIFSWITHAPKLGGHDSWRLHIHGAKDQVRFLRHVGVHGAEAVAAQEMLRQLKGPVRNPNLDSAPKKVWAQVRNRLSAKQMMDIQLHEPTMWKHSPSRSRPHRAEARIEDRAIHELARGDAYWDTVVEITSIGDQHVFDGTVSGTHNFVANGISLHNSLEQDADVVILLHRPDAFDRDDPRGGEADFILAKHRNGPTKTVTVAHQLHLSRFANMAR
Nature of the assay: DnaB intein splicing inhibitors, dose response, biochemical, cell-free fluorescence (AID 449749). It counts as functional.

A short description of assay [15]: non-specific 3'UTR reporter inhibition in Clone20-Shn3RL – cell-based, Renilla luciferase, cherry-picked, counter-screen for Shn3 inhibitor project, dose response (AID 624133). It counts as functional. A general note: A counterscreen serves to expose hits that act by an unwanted route or on another target.
Assay [16] in a line: NIH-3T3 fibroblast cytotoxicity, dose response, cytotoxicity control, cell-based, fluorescence, Alamar Blue, secondary assay (AID 2327).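 Further: NIH-3T3 mouse fibroblasts cultured with fluconazole at 8 µg/mL.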 It counts as functional.
The target of another assay is Melanocortin receptor 4 (Homo sapiens, UniProt P32245). Kind of assay: inhibitors of MC4R cAMP signaling – cell-based, TR-FRET, biased antagonists, dose response (AID 602298).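 Further: antagonist potency against agonist-stimulated cAMP production.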 It counts as functional. On the technique in general: TR-FRET usually uses a lanthanide donor and a delayed reading to cut background.
Melanocortin receptor 4, sequence (P32245 whole entry): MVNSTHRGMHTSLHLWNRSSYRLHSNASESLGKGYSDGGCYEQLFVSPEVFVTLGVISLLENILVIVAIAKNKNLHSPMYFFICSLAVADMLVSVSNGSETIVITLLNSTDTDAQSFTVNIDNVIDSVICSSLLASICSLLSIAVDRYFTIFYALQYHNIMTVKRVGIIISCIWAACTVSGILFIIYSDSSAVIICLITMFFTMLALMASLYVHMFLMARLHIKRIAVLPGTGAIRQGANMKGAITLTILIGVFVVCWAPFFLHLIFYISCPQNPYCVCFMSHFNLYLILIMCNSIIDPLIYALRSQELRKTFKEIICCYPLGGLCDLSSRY
Assay [17] concerns the target Heat shock protein HSP 90-alpha (Homo sapiens, UniProt P07900). It counts as functional, organism-based.
A short description of assay [18]: fluconazole-exposed Candida albicans growth modulators – fluorescence, retest, confirmation (AID 2467). It counts as functional, cell-based.
Assay [19] in a line: viability of HCT116 lacking mutant beta-catenin – cell-based, human colon tumor, dose response (AID 1045).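 Further: HCT116 colon tumor cells with beta catenin knocked out; cells exposed to compound for 60 hours.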 It is filed as functional.
The subject of assay [20] is HEK293. Nature of the assay: cells. The following applies: Homo sapiens. The source holds these as a separate data set.
For the next assay, the target named is T2, Protein RecA (Mycobacterium tuberculosis, UniProt P9WHJ3).
T2 sequence (P9WHJ3 whole entry): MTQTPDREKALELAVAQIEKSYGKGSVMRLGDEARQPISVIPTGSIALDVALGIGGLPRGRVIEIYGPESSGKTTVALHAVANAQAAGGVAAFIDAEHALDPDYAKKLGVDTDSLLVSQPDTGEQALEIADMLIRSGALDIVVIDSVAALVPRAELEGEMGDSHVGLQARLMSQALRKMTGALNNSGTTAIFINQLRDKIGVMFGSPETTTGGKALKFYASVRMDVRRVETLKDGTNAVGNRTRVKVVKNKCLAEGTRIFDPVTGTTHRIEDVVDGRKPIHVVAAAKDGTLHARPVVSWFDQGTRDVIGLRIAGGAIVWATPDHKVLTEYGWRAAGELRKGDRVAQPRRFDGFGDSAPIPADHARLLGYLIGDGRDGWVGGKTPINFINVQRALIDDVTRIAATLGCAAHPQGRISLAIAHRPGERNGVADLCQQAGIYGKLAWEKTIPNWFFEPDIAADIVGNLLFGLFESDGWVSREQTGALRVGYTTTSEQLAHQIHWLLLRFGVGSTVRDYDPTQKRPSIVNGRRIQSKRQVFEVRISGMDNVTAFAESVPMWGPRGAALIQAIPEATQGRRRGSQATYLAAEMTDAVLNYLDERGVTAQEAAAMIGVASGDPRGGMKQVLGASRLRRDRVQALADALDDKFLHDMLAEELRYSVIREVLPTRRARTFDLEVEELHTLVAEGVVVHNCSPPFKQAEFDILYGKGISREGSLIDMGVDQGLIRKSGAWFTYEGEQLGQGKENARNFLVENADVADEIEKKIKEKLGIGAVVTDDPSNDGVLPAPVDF
Kind of assay: Fluorescence Cell-Free Homogeneous Dose Retest to Identify Inhibitors of RecA-Intein Splicing Activity. [Related pubchem assays (depositor defined):AID2097, AID2223, AID489010, AID492950]. It counts as functional.

The nature of assay [21]: cAMP pathway inhibition in counterscreen cell line – TR-FRET cAMP detection, counter-screen for MC4R biased antagonist project, dose response (AID 602305).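 Further: U2OS cells stimulated with forskolin near its EC80 as the cAMP inducer; potency is for inhibition of forskolin-stimulated cAMP signaling.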 It counts as functional, cell-based.
Assay [22] concerns the target Intestinal-type alkaline phosphatase (Homo sapiens, UniProt P09923). Nature of the assay: inhibition of human intestinal alkaline phosphatase – biochemical, dose response (AID 488876). It counts as functional.
Assay [23] concerns the target T3, DNA dC->dU-editing enzyme APOBEC-3A (Homo sapiens, UniProt P31941). Nature of the assay: SAR analysis of small molecule inhibitors of APOBEC3A DNA Deaminase via a fluorescence-based single-stranded DNA deaminase assay. It counts as functional. The following applies: read-out: IC50_Mean.
The target of assay [24] is T3, DNA dC->dU-editing enzyme APOBEC-3A. Nature of the assay: Dose Response confirmation of small molecule APOBEC3A DNA Deaminase Inhibitors via a fluorescence-based single-stranded DNA deaminase assay. [Related pubchem assays (depositor defined):AID493011, AID493024]. It counts as functional.
The target of assay [25] is T4, Microphthalmia-associated transcription factor (Homo sapiens, UniProt O75030).
T4 sequence (O75030 whole entry): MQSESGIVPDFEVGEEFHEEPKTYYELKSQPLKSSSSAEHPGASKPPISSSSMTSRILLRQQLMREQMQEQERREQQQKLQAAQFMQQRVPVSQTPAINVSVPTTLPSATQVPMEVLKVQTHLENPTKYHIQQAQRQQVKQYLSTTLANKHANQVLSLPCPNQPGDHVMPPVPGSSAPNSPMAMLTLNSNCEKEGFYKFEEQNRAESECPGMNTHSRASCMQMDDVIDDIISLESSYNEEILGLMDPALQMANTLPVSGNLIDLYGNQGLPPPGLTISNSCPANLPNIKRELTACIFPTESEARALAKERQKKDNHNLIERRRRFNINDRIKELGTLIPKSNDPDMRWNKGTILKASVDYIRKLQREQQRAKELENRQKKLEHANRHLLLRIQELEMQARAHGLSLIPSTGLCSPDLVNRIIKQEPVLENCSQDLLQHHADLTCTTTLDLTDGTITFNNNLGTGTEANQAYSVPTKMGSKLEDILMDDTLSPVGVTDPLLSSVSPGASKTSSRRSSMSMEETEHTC
Nature of the assay: reducers of TRPM1 reporter luminescence, concentration series – cell-based, SK-MEL-5, cherry-picked, set 3, MITF inhibitor project, dose response (AID 493073).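 Further: SK-MEL-5 melanoma cells with luciferase driven by the MITF target TRPM1 promoter.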 It counts as functional.

The target in assay [26] is Intestinal-type alkaline phosphatase (Mus musculus, UniProt P24822). Nature of the assay: PubChem AID 488785. It is filed as functional.
Assay [27] concerns the target T5, DNA dC->dU-editing enzyme APOBEC-3G (Homo sapiens, UniProt Q9HC16). It counts as functional.
In assay [28] the target is T6, Alkaline phosphatase, tissue-nonspecific isozyme (Homo sapiens, UniProt P05186).
T6 sequence (P05186 whole entry): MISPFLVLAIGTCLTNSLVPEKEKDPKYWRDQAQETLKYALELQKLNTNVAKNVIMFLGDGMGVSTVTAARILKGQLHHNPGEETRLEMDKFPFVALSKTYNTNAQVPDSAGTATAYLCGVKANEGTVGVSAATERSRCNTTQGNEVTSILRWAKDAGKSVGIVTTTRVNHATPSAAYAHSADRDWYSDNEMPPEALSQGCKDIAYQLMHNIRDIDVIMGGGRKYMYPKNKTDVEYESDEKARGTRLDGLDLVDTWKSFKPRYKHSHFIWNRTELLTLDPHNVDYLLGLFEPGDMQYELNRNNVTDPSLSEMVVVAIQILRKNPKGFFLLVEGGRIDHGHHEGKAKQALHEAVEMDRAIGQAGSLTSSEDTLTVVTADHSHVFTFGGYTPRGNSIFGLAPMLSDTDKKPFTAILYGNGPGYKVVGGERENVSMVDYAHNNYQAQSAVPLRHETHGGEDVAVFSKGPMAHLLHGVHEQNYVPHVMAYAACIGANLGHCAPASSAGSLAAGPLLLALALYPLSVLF
Kind of assay: TNAP enzyme inhibition by screening hits, dose response, selectivity assay for mouse IAP inhibitor project, biochemical, human TNAP, uHTS hits (AID 488906). It is filed as functional.

Assay [29] deals with T5, DNA dC->dU-editing enzyme APOBEC-3G. Kind of assay: inhibition of APOBEC3G ssDNA deamination – biochemical, fluorescence, single-stranded DNA substrate, SAR follow-up (AID 602136). It is filed as functional. The following applies: read-out: IC50_Mean.
Assay [30] has the same target. Nature of the assay: SAR analysis of small molecule inhibitors of APOBEC3G DNA Deaminase via a fluorescence-based single-stranded DNA deaminase assay - Set 2. It counts as functional. The following applies: read-out: IC50_Mean.
Assay [31] addresses T3, DNA dC->dU-editing enzyme APOBEC-3A. Nature of the assay: SAR analysis of small molecule inhibitors of APOBEC3A DNA Deaminase via a fluorescence-based single-stranded DNA deaminase assay - Set 2. It is filed as functional. The following applies: read-out: IC50_Mean.

T3 sequence (P31941 whole entry): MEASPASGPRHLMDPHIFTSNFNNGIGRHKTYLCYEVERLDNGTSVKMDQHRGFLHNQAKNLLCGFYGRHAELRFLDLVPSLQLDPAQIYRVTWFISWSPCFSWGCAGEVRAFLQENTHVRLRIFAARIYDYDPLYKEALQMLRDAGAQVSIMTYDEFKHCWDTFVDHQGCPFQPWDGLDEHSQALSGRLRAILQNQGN
T5 sequence (Q9HC16 whole entry): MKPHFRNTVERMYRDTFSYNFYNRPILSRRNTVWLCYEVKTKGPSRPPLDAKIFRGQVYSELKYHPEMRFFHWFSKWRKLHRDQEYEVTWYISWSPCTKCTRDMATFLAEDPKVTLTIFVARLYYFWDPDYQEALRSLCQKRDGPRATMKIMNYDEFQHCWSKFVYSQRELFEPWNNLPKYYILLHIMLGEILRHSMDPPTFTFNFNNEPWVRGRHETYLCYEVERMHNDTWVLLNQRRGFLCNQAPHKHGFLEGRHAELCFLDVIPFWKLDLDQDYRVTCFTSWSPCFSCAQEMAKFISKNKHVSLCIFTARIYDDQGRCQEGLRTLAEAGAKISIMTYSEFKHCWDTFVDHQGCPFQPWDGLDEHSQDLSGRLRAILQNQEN
Dual specificity protein kinase CLK4, sequence (Q9HAZ1 whole entry): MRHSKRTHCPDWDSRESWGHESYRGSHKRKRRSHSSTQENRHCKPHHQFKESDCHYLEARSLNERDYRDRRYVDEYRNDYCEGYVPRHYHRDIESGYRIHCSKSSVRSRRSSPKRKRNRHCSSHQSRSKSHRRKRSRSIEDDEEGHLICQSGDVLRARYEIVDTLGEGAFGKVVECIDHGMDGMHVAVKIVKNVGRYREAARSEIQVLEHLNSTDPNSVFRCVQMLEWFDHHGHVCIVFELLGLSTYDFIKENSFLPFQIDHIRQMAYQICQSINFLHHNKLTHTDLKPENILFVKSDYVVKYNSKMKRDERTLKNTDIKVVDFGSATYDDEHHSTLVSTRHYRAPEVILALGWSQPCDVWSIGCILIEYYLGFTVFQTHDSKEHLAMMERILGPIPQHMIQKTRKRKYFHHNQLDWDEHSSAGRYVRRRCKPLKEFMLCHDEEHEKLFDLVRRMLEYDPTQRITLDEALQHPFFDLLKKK

Usually Ki stands for the equilibrium dissociation constant of an inhibitor or competing ligand from its target. Regarding `CCNC(=O)c1cnc(N)c2c(-c3ccc(NC(=O)Nc4cccc(Cl)c4)cc3)csc12`, the Ki was 0.158 µM (active) in assay [1] and > 100 µM (inactive) in assay [2].

Consider `COc1ccccc1C(=O)Nc1n[nH]c2ccc(-c3cn(Cc4ccccc4)nn3)cc12`, for which the Ki in assay [3] was 0.00501 µM (active); in [4], 0.00398 µM (active); in [5], 0.00398 µM (active); in assay [6], 0.02 µM (active); in assay [7], 0.501 µM (active); in assay [8], 0.0794 µM (active). In addition, the Ki was > 10 µM (inactive) in [9] and > 7.94 µM (inactive) in [10].

By EC50 is commonly meant the concentration needed to bring the measured effect to its halfway point. The AC50 is the concentration at which the activity in the assay is half-maximal. On to `O=[N+]([O-])c1cc(S(=O)(=O)C(F)(F)F)ccc1Sc1nc2ccccc2s1`, for which the EC50 in the assay with HEK293 [11] was > 59.6 µM (inactive); in assay [13] it was 8.04 µM (active); in assay [16], 5 µM (active); in assay [18] it was > 38 µM (not active); in [19], 7.45 µM (active); in the assay with HEK293 [20], > 59.6 µM (inactive). The EC50 at Protein RecA is 0.249 µM (active). The AC50 in assay [12] was 2.45 µM (active); in [14] it was 1.75 µM (active); in assay [15], 15.4 µM (active); in [17], 1.75 µM (active). Moreover, the IC50 at Melanocortin receptor 4 was > 2.39 µM (active); in assay [21], > 64.6 µM (inactive).

On to `Cn1nc([N+](=O)[O-])nc1S(C)(=O)=O`, for which the IC50 in assay [22] was > 100 µM (inactive); in assay [23], 14.4 µM (inactive); in assay [24], 4.14 µM (active); in [26], 5.66 µM (active); in assay [27] it was 65.5 µM (active); in [28], 74.1 µM (active). The IC50 in assay [29] was 27.2 µM (inactive); in [30], 24.1 µM (inactive); in assay [31], 13.1 µM (inactive). In assay [25], the AC50 is 9.2 µM (active).
